Test results as given in patent US11447638B2, “Acetalanthraquinone derivatives useful for cellular staining” (BIOSTATUS LIMITED, priority 2016, dated 2022).

Columns and labels:
[1] = Absorption and fluorescence spectra of compounds in PBS or HEPES; type: physicochemical; conditions: for fluorescence emission, 540 nm (Ex in PBS): excited at 540 nm; for fluorescence emission, 540 nm (Ex in PBS) / fluorescence emission, λ1 nm (Ex in HEPES) / fluorescence emission, λ1 nm (Ex in PBS): 20 μM; for fluorescence emission, λ1 nm (Ex in HEPES) / fluorescence emission, λ1 nm (Ex in PBS): excited at absorption peak 1 (λ1); for peak excitation wavelength: excitation wavelength used for fluorescence spectra of FIG. 1A/1B
Procedure: The compounds were exited at 540 nm and at the wavelength of their absorption peak 1 (λ1 nm). The far-red fluorescent DNA dye DRAQ5 was used as reference.
Compounds were dissolved in DMSO (Sigma) to 20 mM stock concentration. DRAQ5 (Biostatus Ltd) was used as a control anthraquinone agent dissolved in deionised water. Working solutions were prepared in PBS (phosphate buffered saline; Sigma) or HEPES (4-(2-hydroxyethyl)-1-piperazineethanesulfonic acid; Sigma) at 20 or 40 μM. Probe solutions (20 μM), respectively in PBS or HEPES, were pipetted into a 1 mL quartz cuvette (Thermo Fisher Scientific). After obtaining baseline spectra in relevant buffer to zero the instrument, absorbance measurements were obtained using a Beckmann Coulter DU 800 UV/Visible spectrophotometer. The excitation wavelengths were scanned from 280 to 800 nm. Fluorescent spectral scans were performed using a Perkin Elmer LS-50B Luminescence spectrophotometer. To obtain emission scans, the excitation wavelength was set accordingly to the maximum values for each agent or another designated excitation wavelength that matches typical laser lines; and the emission wavelength were scanned from 400 nm to 900 nm in 1 nm increments. A Xenon flash lamp was used as the light source, with the lamp energy set to high. For each data point ten measurements were acquired with the photomultiplier tube sensitivity set at 125.
Compounds were excited at a wavelength corresponding to the first absorbance peak 1 (FIG. 1A and FIG. 1B show absorption (line) and fluorescence (dots) spectra of compounds; both are normalised to peak value.

A549 cells = experiment: Flow cytometry analysis of cell uptake before/after hydrolysis; type: cell-based, human; conditions: 20 μM, 30 min; for % ile (25): low loader cell population
Procedure: Flow cytometry analysis was performed to evaluate the effect of pre-treatment with HCl to generate an active aldehyde on the cell uptake properties. A549 cells were incubated for 30 min with compounds of Formula (I) and its hydrolysed forms (20 μM) prior to analysis. The rate of uptake was tested in A549 cell culture media and in Aldefluor buffer, containing the MDR-blocker verapamil (Pearce and Bonnet 2007), to evaluate the effect in uptake with/without the Aldefluor assay system. Analysis was conducted in the viable subset of cells, corresponding to ˜95% of the total amount under investigation.
Aldefluor buffer contained verapamil vs. cell media. The cells were incubated with 20 μM of the respective AAQ/HAAQs (30 min) before analysis
Statistical analysis of A549 uptake before/after hydrolysis was also studied. Experiments were performed in cell media versus Aldefluor buffer. Data were processed using FlowJo software (Tree Star). DRAQ5 was used to set the dynamic range and as control dye and empty cells were used to determine auto-fluorescence.

[2] = tested on: fixed human osteosarcoma U-2 OS cells; experiment: Labelling of fixed cells, wide-field fluorescence microscopy; type: cell-based; conditions: 20 μM, 1 h exposure in PBS, FIG. 2
Procedure: Cells were seeded in a 24 well coverslip bottomed-plate, cultured overnight in McCoys media. 24 or 48 hours later the cells were washed gently with 3×2 mL PBS per well. The PBS was removed and 0.5 mL of 4% paraformaldehyde solution [a 4% paraformaldehyde solution in PBS was made fresh each time from a 16% stock solution (Thermo Fisher Scientific)] was added in each well and cells were incubated for 30 min. The paraformaldehyde was removed and cells were washed 3×2 mL PBS per well. 1 mL of PBS or HEPES was added to each well.
(§1) Before analysis, cells were incubated at 37° C. in the dark for the period designated. Samples were analysed directly without any further washing step. For live cell labelling cells were seeded, plated in a similar way, into a similar multi-well dish for optimal optical performance and could be used across all microscope platforms.
(§2) This basic protocol was the standard for testing the patterns of AAQ agents at 20 μM, compared to 20 μM of DRAQ5 as the benchmark reference (both in terms of cellular location and ability to detect the red fluorescence).
Low resolution wide-field fluorescence microscopy was used to evaluate cell labelling in fixed human osteosarcoma U-2 OS cells. The system was an Axiovert 100 microscope (Carl Zeiss, Welwyn Garden City, UK) ×10 0.3 NA air objective lens and an ORCA-ER CCD camera (Hamamatsu, Reading, UK). Illumination was controlled by a shutter in front of the transmission lamp. Image capture was controlled using Metamorph software. This evaluates the ability of the compounds to label cellular compartments without active uptake or efflux prohibiting delivery into the given cell. Image collection was performed after 1 h of exposure to probes in PBS. The calibration bar represents 50 μm.

A549 live cells = experiment: Loading of A549 live cells, wide-field fluorescence microscopy; type: cell-based, human; conditions: 20 μM, 30 min incubation, FIG. 3
Procedure: as §1, §2
Low resolution wide-field fluorescence microscopy was used to evaluate cell uptake and localisation of the probe compounds. The system was an Axiovert 100 microscope (Carl Zeiss, Welwyn Garden City, UK) ×10 0.3 NA air objective lens and an ORCA-ER CCD camera (Hamamatsu, Reading, UK). Illumination was controlled by a shutter in front of the transmission lamp. Image capture was controlled using Metamorph software. Human non-small cell lung cancer A549 cell line was used as the cell model to determine whether variation of the probe loading and localisation occurred in cell population sustaining a “side population” (SP) (Smith P J, Wiltshire M, Chappell S C, Cosentino L, Burns P A, Pors K, Errington R J. Kinetic analysis of intracellular Hoechst 33342—DNA interactions by flow cytometry: misinterpretation of side population status? Cytometry A 2013; 83:161-9) with a known capacity to efflux xenobiotic molecules, including the DNA dye Hoechst 33342.
Cells were incubated for 30 min with each compound and then images were collected at a 30 ms exposure time using low resolution wide-field fluorescence microscopy. Using an Axiovert 100 microscope (Carl Zeiss, Welwyn Garden City, UK) ×10 0.3 NA air objective lens and an ORCA-ER CCD camera (Hamamatsu, Reading, UK). Illumination was controlled by a shutter in front of the transmission lamp. Image capture was controlled using Metamorph software. The calibration bar represents 50 μm.

U-2 OS cells = experiment: Confocal laser scanning microscopy (CLSM) localisation analysis; type: cell-based, human; conditions: 30 min incubation, Ex 637 nm, Em >665 nm; for subcellular localisation by CLSM: FIG. 4 and 5
Procedure: Confocal laser scanning microscopy (CLSM) was used to analyse the localisation of compounds BST-100, BST-101 and BST-106 with the U-2 OS cells, as it permitted the acquisition of volume limited optical sections through the cell and media. Excitation (637 nm) and emission (>665 nm) values for the probe analysis were the optimal conditions. The data sets obtained were processed and assembled into a single maximum projection image.
The patterns were analysed after 30 min incubation at different z depths and eliminating the solution background. The nucleus/cytoplasm ratio was calculated to quantify the localisation of the probe per cell.
A Radiance CLSM (BioRad Microscience) was used attached to an inverted Nikon microscope. Image acquisition was performed using excitation (637 nm) and emission (>665 nm) wavelengths. The histogram plot reports the nucleus/cytoplasm index to determine DNA binding in live cells. The calibration bar represents 10 μm.
The compounds BST-108, BST-109 were analysed in the same way.

MCF7 = experiment: MTT cellular viability (growth inhibition) assay, MCF7; type: cell-based; conditions: Homo sapiens, 0.25-100 μM, 72 h, Table 3
Procedure: (§3) The viability of A549 or MCF7 in response to compounds was determined using the MTT (3-(4,5-dimethylthiazolyl-2-)-2, 5-diphenyltetrazolium bromide) assay according to the protocol set out in Mosmann T., Rapid colorimetric assay for cellular growth and survival: application to proliferation and cytotoxicity assays. Journal of immunological methods 1983; 65:55-63.
(§4) Initially, cells were seeded into a rounded-bottom 96 well plate (Corning) at six different cell seeding densities (0.5×104, 1×104, 2×104, 3×104, 4×104, and 5×104) per mL of R10 media (cells/mL) in order to optimise the assay and establish the most suitable seeding assay. Concentration of 1×10^4 cells/mL was determined to be the optimum seeding density for both cell lines for 96 h total incubation. A control lane contained supplemented R10 only. The 96 well plates were incubated overnight at 37° C., 5% CO2 and 100% humidity to allow cell adhesion. Cells were then treated respectively with novel AAQs (0.25-100 μM) or growth inhibition (IC50) of compounds of the invention was studied against MCF7 and A549 cancer cell lines. Compounds were tested with a concentration range between 0.25 and 100 μM for 72 h and doxorubicin, as positive cytotoxic control, was tested in parallel at the same doses.

A549 = experiment: MTT cellular viability (growth inhibition) assay, A549; type: cell-based; conditions: Homo sapiens, 0.25-100 μM, 72 h, Table 3
Procedure: as §3, §4

[3] = solution: Aldefluor buffer with verapamil

Row | Compound | fluorescence emission, 540 nm (Ex in PBS) [1] [nm] | fluorescence emission, λ1 nm (Ex in HEPES) [1] [nm] | fluorescence emission, λ1 nm (Ex in PBS) [1] [nm] | peak excitation wavelength [1] [nm] | IC50 (MCF7) [µM] | IC50 (A549) [µM] | other results
1 | CN(C)CCNc1ccc(O)c2c1C(=O)c1c(O)ccc(NCCN(C)C)c1C2=O [DRAQ5, reference compound] | 635 | >665 | >665 | – | – | – | Median (fluorescence, uptake) (A549 cells; solution: media): 217.4; % ile (25) (A549 cells; solution: media): 191.27
2 | COC(CC(=O)NCCNc1ccc(NCCN(C)C)c2c1C(=O)c1c(O)ccc(O)c1C2=O)OC [BST-111, N-(2-(4-(2-(Dimethylamino)ethylamino)-5,8-dihydroxy-9,10-dioxo-9,10-dihydroanthracen-1-ylamino)ethyl)-3,3-dimethoxypropanamide] | 684 | 684 | 684 | 610 | 1.8 | 38.2 | fluorescence brightness / background in fixed cells [2]: very high background fluorescence; staining pattern in fixed cells [2]: cytoplasmic staining and heterogeneity on labelling of mitotic figures; staining pattern in live cells (A549 live cells): greater contrast and diffuse cellular staining; specific feature of localisation by CLSM (U-2 OS cells): mainly loaded in the nuclear compartment; subcellular localisation by CLSM (U-2 OS cells): strong nuclear uptake and perinuclear staining, with possible ER accumulation; Median (fluorescence, uptake) (A549 cells; [3]): 74.94; % ile (25) (A549 cells; [3]): 64.64; Median (fluorescence, uptake) (A549 cells; solution: media): 72.42; % ile (25) (A549 cells; solution: media): 62.72
3 | COC(CCCCNc1ccc(NCCCCC(OC)OC)c2c1C(=O)c1c(O)ccc(O)c1C2=O)OC [BST-100, 1,4-Bis(5,5-dimethoxypentylamino)-5,8-dihydroxyanthracene-9,10-dione] | – | 740 | 747.5 | 584 | – | – | subcellular localisation by CLSM (U-2 OS cells): low levels of probe in the perinuclear region, with probable overload in Golgi body and large vesicles
4 | COc1cccc2c1C(=O)c1c(O)c3c(c(O)c1C2=O)C[C@@](O)(C(=O)CO)C[C@@H]3O[C@H]1C[C@H](N)[C@H](O)[C@H](C)O1 [Doxorubicin, doxorubicin, reference compound] | – | – | – | – | 0.028 | 0.05 | –
5 | COC(CN(CCNc1ccc(NCCN(Cc2ccccc2)CC(OC)OC)c2c1C(=O)c1c(O)ccc(O)c1C2=O)Cc1ccccc1)OC [BST-202, 1,4-bis((2-(benzyl(2,2-dimethoxyethyl)amino)ethyl)amino)-5,8-dihydroxyanthracene-9,10-dione] | – | 680 | – | – | – | – | –
6 | COC(CNC(=O)CCNc1ccc(NCCC(=O)NCC(OC)OC)c2c1C(=O)c1c(O)ccc(O)c1C2=O)OC [BST-104, 3,3′-(5,8-dihydroxy-9,10-dioxo-9,10-dihydroanthracene-1,4diyl)bis(azanediyl)bis(N-(2,2-dimethoxyethyl)propanamide)] | 712 | 726 | 684 | – | – | – | –
7 | COC(CN(C)CCNc1ccc(NCCN(C)CC(OC)OC)c2c1C(=O)c1c(O)ccc(O)c1C2=O)OC [BST-201, 1,4-bis((2-((2,2-dimethoxyethyl)(methyl)amino)ethyl)amino)-5,8-dihydroxyanthracene-9,10-dione] | 684 | 684 | 690.5 | – | – | – | staining pattern in live cells (A549 live cells): perinuclear accumulation
8 | COC(CCCCNc1ccc(NCCN(C)C)c2c1C(=O)c1c(O)ccc(O)c1C2=O)OC [BST-107, 1-(5,5-Dimethoxypentylamino)-4-(2-(dimethylamino)ethylamino)-5,8-dihydroxyanthracene-9,10-dione] | – | – | – | – | 1.66 | 17.5 | –
9 | COC(CNC(=O)CCNc1ccc(NCCC(=O)NCC(OC)OC)c2c1C(=O)c1ccccc1C2=O)OC [BST-102, 3,3′-(9,10-Dioxo-9,10-dihydroanthracene-1,4-diyl)bis(azanediyl)bis(N-(2,2-dimethoxyethyl)propanamide)] | 670 | 663 | 661 | 585 | 1.75 | > 100 | –
